# According to patent publication US12098180B2, “Compositions and uses of vasoactive intestinal peptide (VIP) antagonists” (EMORY UNIVERSITY, priority 2018, dated 2024):
# Assays:
# [1] = system: acute leukemia; settings: Oncoimmunology, 2017, 6(5):e1304336; cited from earlier work
# [2] = system: T cells from Chronic lymphocytic leukemia (CLL) donors; experiment: Ex vivo expansion of T cells with anti-CD3/28 beads and IL-2; type: cell-based; settings: anti-CD3/28 beads and 30 U/mL IL-2
# [3] = system: T cells from luciferase+C57/BL6 mice; experiment: T cell proliferation in short-term culture with plate bound anti-CD3 antibody and IL-2; type: cell-based
# Method: T cells from luciferase+C57/BL6 mice were harvested and cultured in 96-well plate with 1 μg/ml anti-CD3 antibody and 30 U/ml IL-2 in the presence of original VIPhyb, Ant-1, Ant-2, Ant-3, Ant-4, Ant-5, Ant-6, Ant-7 or Ant-8 at 1 μM.
# T cells from luciferase+C57/BL6 mice were harvested and cultured in 96-well plate with either 0.5 μg/ml or 1 μg/ml anti-CD3 antibody and 30 U/ml IL-2 in the presence of original VIPhyb or Ant-8 at 0.5 μM, 1 μM or 3 μM.
# The peptides (SEQ ID NO: 3-10 in FIG. 1) were added to short-term cultures of luciferase positive T-cells cultured in the presence of plate bound anti CD3 antibody in 96 well plates. The concentration of anti-CD3 antibody was either 0.5 mcg per ml or 1 mcg per ml. The T-cells from luciferase transgenic mice were added in the presence of low-dose IL-2 and 0.5 micromolar, 1 micromolar, or 3 micromolar concentrations of the original VIPhyb peptide or the alternative ANT-1 to ANT-8 peptide sequences were added.
Sequence,autologous anti-leukemia T cell response [1],yields of T cells during ex vivo expansion [2],"T-cell proliferation using lower concentrations of anti-CD3 ([3]; lower anti-CD3 concentration (0.5 mcg per ml), compared to control cultures with plate bound anti-CD3 and no added peptides)",antagonist activity compared to the native VIPhyb ([3]; overall conclusion from the T-cell proliferation cultures),"T-cell proliferation at 24 hours ([3]; peptide at 0.5, 1 and 3 micromolar, compared to the original VIPhyb peptide at the same concentrations)"
"KPRRPYTDNYTRLRKQMAVKKYLNSILN [VIPhyb, chimeric peptide VIP antagonist; six N-terminal amino acids of native VIP replaced]",enhances the autologous anti-leukemia T cell response,,,,
"KPRRPYTDNYTRLRKQMAVKKYLNLILN [ANT-8, VIPhyb variant with S to L substitution at position 25]",,enhance yields of T cells,more modest and not significantly different from control cultures,improved antagonist activity,enhanced T-cell proliferation
